Species: Rattus norvegicus
Test: DrugMatrix - Regimen: Daily Repeat
Type: toxicity, organism-based, Sprague-Dawley
Set-up: regimen Daily Repeat, gender Male, age 6-8 weeks
Conditions: in vivo, po, route oral GAVAGE, […]; for ABSOLUTE BASOPHIL / BASOPHIL / NUCLEATED RED BLOOD CELLS / ABSOLUTE EOSINOPHIL / ABSOLUTE LYMPHOCYTE / ABSOLUTE MONOCYTE / ABSOLUTE SEGMENTED NEUTROPHIL / EOSINOPHIL / ERYTHROCYTE COUNT / HEMATOCRIT / HEMOGLOBIN / LEUKOCYTE COUNT / LYMPHOCYTE / MEAN CORPUSCULAR HEMOGLOBIN / MEAN CORPUSCULAR HEMOGLOBIN CONCENTRATION / MEAN CORPUSCULAR VOLUME / MONOCYTE / NEUTROPHIL / PLATELET COUNT: tissue Blood; for TOTAL BILIRUBIN / ALANINE AMINOTRANSFERASE / ALBUMIN / ALKALINE PHOSPHATASE / ASPARTATE AMINOTRANSFERASE / BLOOD UREA NITROGEN / CARBON DIOXIDE / CHLORIDE / CHOLESTEROL / CREATINE PHOSPHOKINASE / CREATININE / GLUCOSE / LACTATE DEHYDROGENASE / LIPASE / PHOSPHORUS / POTASSIUM / SODIUM / TOTAL PROTEIN / URIC ACID: tissue Plasma
[1] = 0 mg/kg, 72 h, dose level Control, time 3 day
[2] = 0 mg/kg, 120 h, dose level Control, time 5 day
[3] = 10 mg/kg, 72 h, dose level Low, time 3 day
[4] = 10 mg/kg, 120 h, dose level Low, time 5 day

For `COc1ccc2cc([C@H](C)C(=O)O)ccc2c1` [NAPROXEN], the “ABSOLUTE BASOPHIL” value [1] was 0 CELLS/uL, the BASOPHIL [1] was 0% and the “NUCLEATED RED BLOOD CELLS” value [1] was 0 /100WBC. For the same compound, the “TOTAL BILIRUBIN” value [1] was 0.2 mg/dL, the “ABSOLUTE BASOPHIL” value [2] was 0 CELLS/uL and the BASOPHIL [2] was 0%. For the same compound, the “ABSOLUTE BASOPHIL” value [3] was 0 CELLS/uL, the “ABSOLUTE EOSINOPHIL” value [3] was 0 CELLS/uL and the “ABSOLUTE LYMPHOCYTE” value [3] was 16953.33 CELLS/uL. The “ABSOLUTE MONOCYTE” value [3] was 484 CELLS/uL, the “ABSOLUTE SEGMENTED NEUTROPHIL” value [3] was 1296 CELLS/uL and the BASOPHIL [3] was 0%. The EOSINOPHIL [3] was 0%, the “ERYTHROCYTE COUNT” value [3] was 5.66 x10E6/uL and the HEMATOCRIT [3] was 36.03%. The HEMOGLOBIN [3] was 14.13 G/DL, the “LEUKOCYTE COUNT” value [3] was 18.73 x10E3/uL and the LYMPHOCYTE [3] was 90.67%. For the same compound, the “MEAN CORPUSCULAR HEMOGLOBIN” value [3] was 25.03 pg, the “MEAN CORPUSCULAR HEMOGLOBIN CONCENTRATION” value [3] was 39.23 G/DL and the “MEAN CORPUSCULAR VOLUME” value [3] was 63.73 fL. The MONOCYTE [3] was 2.67%, the NEUTROPHIL [3] was 6.67% and the “NUCLEATED RED BLOOD CELLS” value [3] was 0.33 /100WBC. The “PLATELET COUNT” value [3] was 1140 x10E3/uL, the “ALANINE AMINOTRANSFERASE” value [3] was 66 u/L and the ALBUMIN [3] was 3.9 G/DL. For the same compound, the “ALKALINE PHOSPHATASE” value [3] was 469.67 u/L, the “ASPARTATE AMINOTRANSFERASE” value [3] was 84 u/L and the “BLOOD UREA NITROGEN” value [3] was 9.67 mg/dL. The “CARBON DIOXIDE” value [3] was 20.33 mmol/L, the CHLORIDE [3] was 103.67 MEQ/L and the CHOLESTEROL [3] was 54.33 mg/dL. The “CREATINE PHOSPHOKINASE” value [3] was 295.33 u/L, the CREATININE [3] was 0.19 mg/dL and the GLUCOSE [3] was 187.67 mg/dL. For the same compound, the “LACTATE DEHYDROGENASE” value [3] was 313.33 u/L, the LIPASE [3] was 9.33 u/L and the PHOSPHORUS [3] was 12.03 mg/dL. For the same compound, the POTASSIUM [3] was 6.09 MEQ/L, the SODIUM [3] was 143.67 MEQ/L and the “TOTAL BILIRUBIN” value [3] was 0.1 mg/dL. For the same compound, the “TOTAL PROTEIN” value [3] was 5.87 G/DL, the “URIC ACID” value [3] was 2.03 mg/dL and the “ABSOLUTE BASOPHIL” value [4] was 0 CELLS/uL. For the same compound, the “ABSOLUTE EOSINOPHIL” value [4] was 321 CELLS/uL, the “ABSOLUTE LYMPHOCYTE” value [4] was 16605.33 CELLS/uL and the “ABSOLUTE MONOCYTE” value [4] was 680 CELLS/uL. For the same compound, the “ABSOLUTE SEGMENTED NEUTROPHIL” value [4] was 1493.67 CELLS/uL, the BASOPHIL [4] was 0% and the EOSINOPHIL [4] was 2%. The “ERYTHROCYTE COUNT” value [4] was 5.33 x10E6/uL, the HEMATOCRIT [4] was 34.4% and the HEMOGLOBIN [4] was 13.33 G/DL. For the same compound, the “LEUKOCYTE COUNT” value [4] was 19.1 x10E3/uL, the LYMPHOCYTE [4] was 86.33% and the “MEAN CORPUSCULAR HEMOGLOBIN” value [4] was 25.23 pg. For the same compound, the “MEAN CORPUSCULAR HEMOGLOBIN CONCENTRATION” value [4] was 38.8 G/DL, the “MEAN CORPUSCULAR VOLUME” value [4] was 65 fL and the MONOCYTE [4] was 3.67%. For the same compound, the NEUTROPHIL [4] was 8%, the “NUCLEATED RED BLOOD CELLS” value [4] was 0 /100WBC and the “PLATELET COUNT” value [4] was 1322.33 x10E3/uL. For the same compound, the “ALANINE AMINOTRANSFERASE” value [4] was 109.67 u/L, the ALBUMIN [4] was 3.7 G/DL and the “ALKALINE PHOSPHATASE” value [4] was 463.67 u/L. For the same compound, the “ASPARTATE AMINOTRANSFERASE” value [4] was 145.33 u/L, the “BLOOD UREA NITROGEN” value [4] was 8.33 mg/dL and the “CARBON DIOXIDE” value [4] was 19.33 mmol/L. The CHLORIDE [4] was 104 MEQ/L, the CHOLESTEROL [4] was 40.33 mg/dL and the “CREATINE PHOSPHOKINASE” value [4] was 1655.33 u/L. The CREATININE [4] was 0.18 mg/dL, the GLUCOSE [4] was 252 mg/dL and the “LACTATE DEHYDROGENASE” value [4] was 400 u/L. For the same compound, the LIPASE [4] was 9 u/L, the PHOSPHORUS [4] was 14.07 mg/dL and the POTASSIUM [4] was 6.26 MEQ/L. The SODIUM [4] was 143.27 MEQ/L, the “TOTAL BILIRUBIN” value [4] was 0.17 mg/dL and the “TOTAL PROTEIN” value [4] was 5.4 G/DL. The “URIC ACID” value [4] was 3.1 mg/dL.

— ChEMBL document CHEMBL3885881, “DrugMatrix”
